{"source": "patent US9739733B2", "about": "“Methods for monitoring tight clot formation” (T2 Biosystems, Inc., priority 2012, dated 2017)", "key": {"platelets in whole blood [1]": {"tested_on": "platelets in whole blood", "test": "T2MR platelet-induced clot contraction with platelet agonist, uncoated polypropylene tube", "assay_type": "cell-based, human", "from_the_text": "Platelet-induced clot contraction was used for measuring platelet activity and inhibition using a formulation of reptilase (RF), factor XIIIa (FXIIIa), and platelet agonist such as arachidonic acid (AA) or adenosine diphosphate (ADP). The RF and FXIIIa induce the formation of a fibrin mesh rapidly without activating platelets. This occurs rapidly as compared to clot contraction. In developing a platelet activity assay for the agonist arachidonic acid (AA) we were able to see reproducible […] signatures that titrated with the concentration of AA as expected ([…] curves acquired from whole blood with 0.5 mM, 1.0 mM, and 1.5 mM AA). In a typical clot contraction signal there is an upper […] signal that increases rapidly between 5 and 10 minutes and the appearance of a lower […] signal around the same point in time. The upper signal corresponds to water excreted from the clot and the lower signal corresponds to water trapped in the contracted clot. The lowest level has the slowest kinetics. […] In developing a platelet activity assay for the agonist ADP we encountered a problem with reproducibility. For example, in triplicate measures (3 samples obtained in parallel from freshly drawn blood) the clot contraction signal might appear for only one sample and/or the triplicate measures might vary in the signal intensity of the clot contraction signal. Reproducible results were obtained from AA, but not ADP. This is believed to result from the fact that AA is a stronger platelet activator than ADP. This conclusion is supported by the following observations. […] Second, aging the blood could lead to stronger clot contraction signals, presumably due to basal thrombin activation that led to more platelet induced clot contraction. Third, adding low levels of thrombin could lead to more platelet induced clot contraction. Therefore, there is a difference in the strength of platelet activation for AA and ADP."}, "[2]": {"tested_on": "platelets in blood samples", "test": "T2MR ADP activation titration in Triton X-100 coated polypropylene tubes", "assay_type": "cell-based, human", "details": "Triton X-100 coated tube", "description": "Platelet-induced clot contraction was used for measuring platelet activity and inhibition using a formulation of reptilase (RF), factor XIIIa (FXIIIa), and platelet agonist such as arachidonic acid (AA) or adenosine diphosphate (ADP). The RF and FXIIIa induce the formation of a fibrin mesh rapidly without activating platelets. This occurs rapidly as compared to clot contraction. Briefly, blood samples were activated with varying levels of ADP in 0.2 mL polypropylene tubes coated with Triton X-100. […] Additionally, levels below […] are now able to show a clot contraction signal when the polypropylene surface is coated with Triton X-100. Furthermore, this signal is much stronger than that previously observed for ADP activated samples in polypropylene tubes without coating."}, "[3]": {"test": "T2MR fibrinogen assay with thrombin", "set-up": "species or system human", "details": "45 μM MnSO4 in buffer diluent", "description": "T2MR measures the formation of fibrin directly in the whole blood or plasma in the presence of thrombin. The solution of thrombin (STAGO, 5 U/mL) is added to the diluted solution of plasma (or blood) and the change in T2 signal is monitored. The sample begins to clot immediately upon addition of thrombin, resulting in a rapid decrease in T2 signal. In order to achieve better sample relaxation rate and reduce noise in the measured T2 signal the paramagnetic material (MnSO4) is added to the buffer diluent (STAGO, Owren-Koller buffer), with a final concentration of the MnSO4 in diluent of 45 μM. […] The buffer diluent containing paramagnetic material is used to prepare thrombin 5 U/mL stock by diluting 80 U/mL stock and to prepare standard dilutions for the calibration curve."}, "[4]": {"test": "PT clotting time, T2MR and Stago", "set-up": "species or system human", "details": "spiked 10 ng/mL-1000 ng/mL", "description": "Clotting times were measured by […] by first establishing a time zero T2 value (i.e., by taking the first point or some sort of average or linear fit to the first 5-10 data points) of the T2 time curve, and second identifying the time point (i.e., the clotting time or PT time) in the T2 time curve when the T2 value had changed by a predetermined amount (e.g. 5% or 10%) indicative of clotting in the sample. From the observed PT clotting time the INR was calculated using the methods described in Jan et al., Clin. Chem. 35:840 (1989). […] 18 normal samples and 24 abnormal samples were tested against a reference range established by 20 normal samples. Abnormal samples with prolonged PT times were obtained by spiking increasing levels of the anti-Xa inhibitor Rivaroxiban (10 ng/mL-1000 ng/mL). Correlation with TEG clotting time was obtained across >40 normal patient samples with non-optimized R2 correlation of >0.8. (see FIG. 14B). PT time correlations with Stago for plasma (see FIG. 14D) and with Hemochron for whole blood (see FIG. 14C) were also found."}, "platelet activity": {"tested_on": "platelet activity", "test": "T2MR platelet inhibition, heparin blood activated by AA+RF", "assay_type": "cell-based, human", "details": "600 μM aspirin ex vivo", "description": "In this experiment platelet inhibition was monitored by the addition of 600 μM aspirin ex vivo to heparin blood prior to activation by AA+RF (samples were tested with and without aspirin). […] These studies confirmed that the clot signature was dependent on platelet activity."}, "platelets in whole blood [5]": {"tested_on": "platelets in whole blood", "details": "5-20 μM epinephrine", "description": "A titration of epinephrine ranging from 5-20 μM was added to the activation cocktail (comprised of reptilase, factor XIIIa, calcium, and platelet activator). 4 μL of the activation cocktail was added to 36 μL of whole blood in a coated tube. The tube containing the reaction was placed in a T2MR reader. T2MR relaxation curve data was processed with an Inverse Laplace transformation algorithm."}, "platelets": {"tested_on": "platelets", "test": "Tube-dried collagen as platelet activator, T2MR", "assay_type": "cell-based", "details": "2 micrograms dried in microtube; whole blood and RBC-depleted plasma", "description": "Collagen is a potent activator of platelets, and recognition of exposed collagen from the cellular matrix is one of the in vivo signals for platelet activation. […] To prepare the tube, 2 micrograms (2 μL of a 1 mg/ml solution) was deposited in the bottom of a microtube and the tube placed at 37° C. for 2-5 hours. A tube prepared in this way can be kept at room temperature or at 37° C. for several weeks. To measure a T2MR signature 34 μL of citrated whole blood (or RBC-depleted blood) were added to the tube at 37 degrees; after 1 minute 2 μL of 0.2M CaCl2 was added and the sample placed in the magnet for relaxation measurements and analysis."}}}
{"molecule": "CCCCC/C=C\\C/C=C\\C/C=C\\C/C=C\\CCCC(=O)O", "note": "[AA, arachidonic acid]", "values": [{"measurement": "concentration that typically causes clot retraction", "setting": "platelets in whole blood [1]", "result": "0.5 to 1", "unit": "mM"}, {"measurement": "platelet-induced clot contraction", "setting": "platelets in whole blood [1]; typical level of AA", "result": "strong platelet-induced clot contraction"}]}
{"molecule": "Nc1ncnc2c1ncn2[C@@H]1O[C@H](COP(=O)(O)OP(=O)(O)O)[C@@H](O)[C@H]1O", "note": "[ADP, adenosine diphosphate]", "values": [{"measurement": "clot retraction after gel phase", "setting": "platelets in whole blood [1]; ADP activation", "result": "retraction does not occur"}, {"measurement": "platelet-induced clot contraction", "setting": "platelets in whole blood [1]; ten-fold excess (over standard levels) of ADP", "result": "weak and irreproducible platelet-induced clot contraction"}, {"measurement": "clot formation T2MR signal", "setting": "[2]; 2.5 mM ADP", "result": "partial clot formation is observed"}, {"measurement": "clot formation T2MR signal", "setting": "[2]; 0.5 and 1 mM ADP", "result": "no clot formation signal is observed"}, {"measurement": "clot formation T2MR signal", "setting": "[2]; 5, 10, 20 mM ADP", "result": "complete clot formation is observed"}]}
{"molecule": "O=S(=O)([O-])[O-].[Mn+2]", "note": "[MnSO4]", "values": [{"measurement": "effect on the clotting process", "setting": "[3]", "result": "no significant effect"}]}
{"molecule": "O=C(NC[C@H]1CN(c2ccc(N3CCOCC3=O)cc2)C(=O)O1)c1ccc(Cl)s1", "note": "[Rivaroxiban]", "values": [{"measurement": "PT times", "setting": "[4]", "result": "prolonged"}]}
{"molecule": "CC(=O)Oc1ccccc1C(=O)O", "note": "[aspirin, acetylsalicylic acid]", "values": [{"measurement": "clot-associated T2 signal", "setting": "platelet activity", "result": "dramatically diminished or absent"}]}
{"molecule": "CNC[C@H](O)c1ccc(O)c(O)c1", "note": "[epinephrine]", "values": [{"measurement": "sample response (clot contraction)", "setting": "platelets in whole blood [5]", "result": "responsive"}, {"measurement": "timing of clot contraction", "setting": "platelets in whole blood [5]", "result": "dose dependent"}]}
{"molecule": "collagen", "values": [{"measurement": "T2MR clot peak", "setting": "platelets", "result": "effectively generate a T2MR clot peak"}]}
